Earlier results on 1 substance are cited in paper PMC12329520 (Molecular Therapy. Nucleic Acids, 2025).

In this data set the test system is exon 23 of the Dmd gene. The note with it: CP10 conjugated to 2OMePS ASO, mdx mouse.

Take QLFPLFR [CP10]: the “exon skipping in skeletal muscle tissues and heart compared with an unconjugated ASO of the same chemistry” value is on record as “significant improvement in exon skipping”.
